According to patent US20100092443A1, “NOVEL COMBINATIONS OF NITROGENATED HETEROCYCLIC ANTIBACTERIAL COMPOUNDS WITH OTHER ANTIBACTERIAL COMPOUNDS AND THE USE OF SAME AS DRUGS” (priority 2008, published 2010):
Structures can show the parent of a compound that is named as a salt.

Legend:
[1] = system: P. aeruginosa (391 HT2); assay: MICs determined on microplates; format: cell-based, Pseudomonas aeruginosa; settings: sensitive strain P. aeruginosa 391 HT2
Experimental: (§1) The minimum inhibitory concentrations (MICs) of the products to be tested (products alone and combinations) are determined in advance. • For each concentration of product to be tested as well as the control stock, an Erlenmeyer flask containing 18.5 ml Muller-Hinton medium (Ca^++) is prepared. • From an overnight culture in broth or a bacterial suspension of OD (optical density)=1, a 1/100 dilution is prepared. • The sample is cultured with agitation for 2 h at 37° C. • OD is measured: if >0.5, the sample is diluted to 1/10. • Each Erlenmeyer flask is inoculated with 1 ml of the agitated culture or its dilution. The initial inoculum should be 1×10^6 CFU/ml. • The various antibiotic solutions are added at a volume of 0.5 ml and 0.5 ml of medium in the control Erlenmeyer flask. • With a volume of 0.1 ml, the control Erlenmeyer flask is numbered=TO. • The flask is incubated at 37° C. with agitation. • At each sampling point (2, 4, 6, 24, 48 hours), a volume of 0.1 ml is sampled from each Erlenmeyer flask and numbered. • Plates for all the numbered samples are incubated (24 h-48 h) at 37° C.
Bactericidal activity was evaluated on a sensitive strain of P. aeruginosa (391 HT2)

[2] = system: P. aeruginosa (391 HT2); assay: MICs in a volume of 10 ml, bactericidal conditions (exponential bacterial growth); format: cell-based, Pseudomonas aeruginosa
Experimental: as §1
For the bactericidal tests, MICs are determined in a volume of 10 ml-bactericidal conditions (exponential bacterial growth): […]

| Compound | MIC determined on microplates [1] [µg/mL] | MIC in a volume of 10 ml, bactericidal conditions [2] [µg/mL] | MIC ([1]; Pseudomonas aeruginosa) [µg/mL] | MIC ([2]; Pseudomonas aeruginosa) [µg/mL] |
| --- | --- | --- | --- | --- |
| Cn1ncc2c1[C@@H](CN)N1C[C@H]2N(OS(=O)(=O)O)C1=O (relative stereo) [NXL105, Sodium and Trifluoroacetate Salts of trans 8-(aminomethyl)-4,8-dihydro-1-methyl-5-(sulphooxy)-4,7-methano-7H-pyrazolo[3,4-e][1,3]diazepin-6(5H)-one] | 0.25 | 0.25 | – | – |
| CC(C)(O/N=C(\C(=O)N[C@@H]1C(=O)N2C(C(=O)[O-])=C(C[n+]3ccccc3)CS[C@H]12)c1csc(N)n1)C(=O)O [Ceftazidime] | – | – | 2 | 8 |
